# Measured values published in patent US5900250A, “Monoglyceride/lactate ester permeation enhancer for oxybutnin” (ALZA Corporation, priority 1998, dated 1999).
# What was measured:
# [1] = solubility of glycerol monolaurate in lauryl lactate / EVA 40; format: physicochemical; conditions: for Wt % GML in solution: based on GML solubility of 350 mg/g
# Excerpt: The unexpected effects of the specific weight percentages of the components of the permeation enhancer mixture are believed to be due, in part, to the solubility of the monoglyceride in the lactic acid ester. It is known that monoglycerides by themselves are effective permeation enhancers. The enhancement occurs by the solubilization of the monoglyceride in the lipid layer of the skin. The solubilization of the monoglyceride in the lipid layer increases as a function of lactic acid ester concentration. […] Thus, the amount of GML dissolved, ie, free GML, is dictated by and proportional to the lauryl lactate loading in the polymer.
# [2] = format: in vivo, human; conditions: after the initial application; transdermal with permeation enhancing mixture
# Method: Therapeutic blood levels can be achieved within approximately 6-10 hours after the initial application, and blood concentrations are maintained with subsequent system applications. The range of desired and achievable system permeation rates of oxybutynin, arriving through the skin from a limited area, is 1-20 mg over a period of 24 hours. The system application is easily adapted for shorter or longer duration treatments, but generally 72 hours is the duration for a single application.
# [3] = aqueous solution 25 mg/mL, 0.05 M isotonic phosphate buffer, 20 μm polybutadiene film, cited from earlier work
# [4] = in vitro permeation of oxybutynin through human epidermis at 35° C., EVA 40 systems on horizontal permeation cells (Examples 4-5); format: in vitro ADME; conditions: R- or S-oxybutynin versus racemate
# Method: Oxybutynin, glycerol monolaurate and lauryl lactate were then added.
# When EVA 40 was used the mixture was blended, cooled and calendered to a 5 mil thick film. This film was then laminated to an acrylic contact adhesive (MSP041991P, 3M) on one side and Medpar® backing (3M) on the opposite side. The laminate was then cut into 2.54 cm^2 circles using a stainless steel punch. Circular pieces of human-epidermis were mounted on horizontal permeation cells with the stratum corneum facing the donor compartment of the cell. The release liner of the system was then removed and the system was centered over the stratum corneum side of the epidermis.
smiles,measurement,setting,value
"CCCCCCCCCCCC(=O)OCC(O)CO (centres unmarked) [GML, glycerol monolaurate]",Wt % GML in solution,[1]; 12% lauryl lactate in EVA 40,4.2%
same,Wt % GML in solution,[1]; 20% lauryl lactate in EVA 40,7.0%
same,Wt % GML in solution,[1]; 27% lauryl lactate in EVA 40,9.5%
same,Wt % GML in solution,[1]; 30% lauryl lactate in EVA 40,10.5%
same,solubility in EVA 40 matrix,[1]; EVA 40 matrix,practically insoluble
same,solubility of glycerol monolaurate in lauryl lactate,[1]; solution stirred,350 mg/g of solution
CCN(CC)CC#CCOC(=O)C(O)(c1ccccc1)C1CCCCC1 (centres unmarked) [Oxybutynin],time to therapeutic blood levels,[2],6 to 10 h
same,in vitro release rate (per area),[3],~10 μg/cm^2.hr
same,in vitro release rate (amount over 24 hours),[3]; through a 49 cm^2 area,approximately 12 mg over 24 hours
CCN(CC)CC#CCOC(=O)[C@](O)(c1ccccc1)C1CCCCC1 [R-oxybutynin],"flux of enantiomer relative to racemate, in words",[4],approximately equivalent to that of the racemate
CCN(CC)CC#CCOC(=O)[C@@](O)(c1ccccc1)C1CCCCC1 [S-oxybutynin],"flux of enantiomer relative to racemate, in words",[4],approximately equivalent to that of the racemate
